Experimental data published in ChEMBL document CHEMBL1201862, “PubChem BioAssay data set” (2004).
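In this assay, cells in 96-well plates receive the compound at five concentrations for 48 hours. Endpoints are linearly interpolated between the surrounding concentrations. GI50 is the concentration that inhibits growth by half.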 Activity calls are given as the source filed them. Rule as the data show it: active = GI50 up to about 1.1 µM and inactive = higher.

Key:
Assay in all cases: growth of human tumour cells (NCI), 48 h
COLO 205 = system: COLO 205
HCC 2998 = system: HCC 2998
HCT-15 = system: HCT-15
M14 = system: M14
MOLT-4 = system: MOLT-4
NCI-H226 = system: NCI-H226
OVCAR-4 = system: OVCAR-4
OVCAR-5 = system: OVCAR-5
RPMI-8226 = system: RPMI-8226
SR = system: SR
SW-620 = system: SW-620
TK-10 = system: TK-10
UO-31 = system: UO-31
SNB-75 = system: SNB-75
DU-145 = system: DU-145
MDA-MB-231 = system: MDA-MB-231
MDA-MB-435 = system: MDA-MB-435
MDA-N = system: MDA-N
NCI/ADR-RES = system: NCI/ADR-RES

SMILES | GI50 (COLO 205) | GI50 (HCC 2998) | GI50 (HCT-15) [µM] | GI50 (M14) | GI50 (MOLT-4) | GI50 (NCI-H226) | GI50 (OVCAR-4) | GI50 (OVCAR-5) | GI50 (RPMI-8226) | GI50 (SR) | GI50 (SW-620) | GI50 (TK-10) | GI50 (UO-31) | GI50 (SNB-75) | GI50 (DU-145) | GI50 (MDA-MB-231) | GI50 (MDA-MB-435) | GI50 (MDA-N) | GI50 (NCI/ADR-RES)
COC(=O)C(/C(=N/N)C(=O)Nc1cc(Cl)ccc1Cl)c1nc2ccc([N+](=O)[O-])cc2nc1O (stereo not given) | > 100 µM (inactive) | 74.6 µM (inactive) | 76.4 | 72.3 µM (inactive) | 17 µM (inactive) | > 100 µM (inactive) | > 100 µM (inactive) | > 100 µM (inactive) | > 100 µM (inactive) | > 100 µM (inactive) | > 100 µM (inactive) | > 100 µM (inactive) | 40 µM (inactive) |  |  |  |  |  | 
N#Cc1ccc(/C=N/C23CC4CC(CC(C4)C2)C3)cc1 | > 100 µM (inactive) | > 100 µM (inactive) | > 100 | > 100 µM (inactive) | 78.5 µM (inactive) | > 100 µM (inactive) | > 100 µM (inactive) | > 100 µM (inactive) | > 100 µM (inactive) | > 100 µM (inactive) | > 100 µM (inactive) | > 100 µM (inactive) | > 100 µM (inactive) | > 10 µM (inactive) |  |  |  |  | 
O=c1[nH]nc2ccccc2c1Cc1ccccc1 | > 100 µM (inactive) | 59.3 µM (inactive) | > 100 | > 100 µM (inactive) | > 100 µM (inactive) | > 100 µM (inactive) | > 100 µM (inactive) | > 100 µM (inactive) | > 100 µM (inactive) |  | > 100 µM (inactive) | > 100 µM (inactive) | > 100 µM (inactive) | 96.6 µM (inactive) |  |  |  |  | 
CC(=O)C1C(=O)N(C(C)C)C[C@@H]2CCC(=O)C[C@H]12 (stereo not given in full) | > 100 µM (inactive) | > 100 µM (inactive) | > 100 | > 100 µM (inactive) | > 100 µM (inactive) |  | > 100 µM (inactive) |  | > 100 µM (inactive) |  | > 100 µM (inactive) | > 100 µM (inactive) | > 100 µM (inactive) | > 100 µM (inactive) |  |  |  |  | 
CCN(N=O)C1C2(CCCC2)NC(=O)C12CCCC2 (stereo not given) |  | > 100 µM (inactive) | > 100 | > 100 µM (inactive) | > 100 µM (inactive) | > 100 µM (inactive) | > 100 µM (inactive) | > 100 µM (inactive) | > 100 µM (inactive) | > 100 µM (inactive) | > 100 µM (inactive) | > 100 µM (inactive) | > 100 µM (inactive) | > 100 µM (inactive) |  |  |  |  | 
CC(C)C1CCC/C=C/C=C/C=C/C=C/C(OC2OC(C)C(O)C(N)C2O)CC2OC(O)(CC(O)CC(O)C(O)CCC(=O)O1)CC(O)C2C(=O)O (stereo not given) | > 52.5 µM (inactive) |  | > 52.5 | > 52.5 µM (inactive) | > 52.5 µM (inactive) |  |  |  | > 52.5 µM (inactive) | > 52.5 µM (inactive) | > 52.5 µM (inactive) |  | > 52.5 µM (inactive) | > 52.5 µM (inactive) |  |  |  |  | 
C=CNC(=O)NC(=O)CSc1nc(=O)c(-c2ccccc2NC(=O)C(F)(F)F)n[nH]1 | 47.5 µM (inactive) | > 100 µM (inactive) | > 100 | 23.4 µM (inactive) | > 100 µM (inactive) | 10.7 µM (inactive) |  | > 100 µM (inactive) |  | 84.3 µM (inactive) | > 100 µM (inactive) | 68.9 µM (inactive) | > 100 µM (inactive) | 0.071 µM (active) |  |  |  |  | 
O=C(CN1CCN(c2ccccc2)CC1)c1ccc2[nH]c(=O)oc2c1 | > 100 µM (inactive) |  | > 100 | > 100 µM (inactive) | > 100 µM (inactive) | > 100 µM (inactive) |  | > 100 µM (inactive) | > 100 µM (inactive) | > 100 µM (inactive) | > 100 µM (inactive) | > 100 µM (inactive) |  | > 100 µM (inactive) | > 100 µM (inactive) | 83.4 µM (inactive) | > 100 µM (inactive) | > 100 µM (inactive) | 49.5 µM (inactive)
Cc1c2n(c(=O)[nH]c1=O)C1OC(CO)C(O2)C1O (stereo not given) | > 100 µM (inactive) |  | > 100 |  | > 100 µM (inactive) | > 100 µM (inactive) | > 100 µM (inactive) |  | > 100 µM (inactive) | > 100 µM (inactive) | > 100 µM (inactive) | > 100 µM (inactive) | > 100 µM (inactive) | > 100 µM (inactive) |  |  |  |  | 
O=C(c1ccc(Cl)cc1)N(C(=S)N1CCN(c2ccccn2)CC1)C1CCCCC1 | 44.4 µM (inactive) |  | 43.8 | > 100 µM (inactive) | 24.3 µM (inactive) | 18.2 µM (inactive) | > 100 µM (inactive) | > 100 µM (inactive) | 25.5 µM (inactive) | 41.1 µM (inactive) | 83.6 µM (inactive) | > 100 µM (inactive) | 48.3 µM (inactive) | > 100 µM (inactive) |  |  |  |  | 
